Data from US9388405B2, “Method for identifying a subpopulation of mammalian cells with distinctive ribosome translation profiles” (priority 2009, dated 2016).
Peptide text beside a SMILES is read from it. * marks the point of attachment. Cbz = O=C(OCc1ccccc1)*

Columns and labels:
[1] = tested on: Class III HCT116 mTRdm-fLUC 7-5 and 12-16 cell lines; assay: Western blot of fLUC protein in 15-Assay cell extracts; type: cell-based, human
Description: The remaining cell suspension was centrifuged as described above and the pellets stored at −70/−80° C. for subsequent protein extraction and Western blot analysis. For protein extraction, cells were thawed on ice and resuspended in equal volumes of the Suspension Buffer (100 mM NaCl, 10 mM TrisHCl [pH 7.6], 1 mM EDTA, 1 mg/mL aprotinin, 100 μg/mL PMSF) and the 2×SDS Buffer (100 mM TrisHCl (pH6.8), 4% SDS, 20% glycerol, 20 mM DTT, 10 mM EDTA, 2× Roche Protease Inhibitor Cocktail). The extracts were homogenized by vigorous mixing and boiling for 3 min. Additional homogenization (when needed) was achieved by passing samples through a syringe fitted with a 26 G needle. At this point, the extracts were either analyzed by SDS-PAGE gel or stored at −80° C.
To produce a near quantitative Western blot analysis, equal protein concentrations are loaded on Western blots. […] The fLUC protein was detected using an anti-fLUC primary antibody (Sigma; 1:1000 dilution). After incubation with a primary antibody and extensive washing with 1×PBS-T, proteins binding the primary antibody were detected by incubation with a horseradish peroxidase (HRP) conjugated anti-rabbit secondary antibody (Amersham; 1:10000 dilution). Following incubation with the secondary antibody and extensive washing, reactive proteins were detected with the ECL reagent system (Amersham) as described by the vendor. […]

[2] = tested on: HCT116 mTRdm-fLUC cells; assay: 5-Assay / 15-Assay toxin assays, fLUC plate reader (Fold Induction); type: cell-based, human; conditions: 5-Assay, 6 hr, HCT116 mTRdm-fLUC 12-16 subclone #38
Description: The 5-Assay and 15-Assay procedures were applied to cellular pools using either of two growth procedures (e.g. a Cell Count or Confluence growth assay). For a Cell Count assay, cells from the P1 pool dish were counted and passed into a white clear bottom 96-well microtiter tray at a density of 25,000 cells per well; the leftover cells were passed into a passage 2 (P2) dish. Cells in the microtiter plate were allowed to grow for about 40 hr to achieve a ˜75% cell confluence prior to incubation with a toxic agent. Then cells in a microtiter plate were treated with complete growth medium containing either no toxin or an optimal toxin, defined as a single or multiple toxin assay that produces a maximal translational response (taken from Table 3) and incubated for 6 hours at 37° C. Each treatment was performed on triplicate wells.
After toxin incubation, cells were examined by phase contrast microscopy for signs of detachment. If more than ˜10% of cells were detached, the 96-well plates were centrifuged at 1200 rpm for 3 min to pellet the detached cells. The media were removed and replaced with 50 μL of Cell Lysis Buffer (25 mM Tris-phosphate (pH7.8), 10% glycerol, 1% Triton X-100, 1 mg/ml BSA, 2 mM EGTA and 2 mM DTT). Cells were incubated with the Cell Lysis Buffer for 10 min at RT and cell lysis was verified using a phase contrast microscope. To ensure complete lysis, the lysates were vigorously agitated using the multichannel pipettor. Any air bubbles formed as a result of agitation were manually removed with a syringe needle. Luminescence was measured using the FLUOstar Optima (BMG Labtech) microplate reader. To develop luminescence, wells were injected with 5 μL of the D-luciferin solution dissolved in Reaction Buffer (25 mM Glycylglycine (pH 7.8), 15 mM MgSO4, 4 mM EDTA, 15 mM Potassium phosphate, 1 mM DTT, 1 mM Coenzyme A, 6.7 mM ATP and 3.35 mM D-luciferin). After 4 sec with shaking, luminescence values were measured using the lens filter at gains of 2500-4000.
Light values were converted to Fold Induction using the ratio of values produced by treated and untreated cells. The maximal TR-specific translational response produced by the 5-Toxin or 15-Toxin assay was used to assign an optimal toxin assay (maximal translational response) which was subsequently used to screen subclones derived from this pool and to assign a Class designation. […]
In one test, the 5-Assay procedure (Table 3) was applied to HCT116 mTRdm-fLUC 12-16 subclone #30 cells (FIG. 1A). […] Samples were then processed with Lysis buffer and read in a plate reader. […]
Triplicate samples of HCT116 mTRdm-fLUC 12-16 Sub#30 cells were cultured with the two-Toxin assays using a standard plate reader protocol (FIG. 1C). […]

[3] = tested on: HEK293 hTRdm-fLuc #53 and HEK293 mTRdm-fLuc #12 subclones; assay: Microtubule disruptor single-Toxin dose response, cap-independent; type: cell-based, human; conditions: cap-dependent and cap-independent assays
Description: The plate reader values were averaged and expressed as the ratio of treated to untreated samples (Fold Induction). Highly similar TR expression profile were produced by the human (hTRdm, top panel) and the mouse (mTRdm, bottom panel) TR cassettes. […] In contrast, significant increases in reporter activity were only observed at nocodazole concentrations greater than 250 nM. As in the cap-dependent assay, taxol-specific reporter increases were only observed at the 2.5 uM and 5 uM doses.
Highly similar cap-independent translational profiles were produced by each TR-expressing cell line (FIGS. 29B and C). […] This contrasted with the nocodazole responses, where significant increases were observed only at concentrations larger than 250 nM. As before, taxol-specific translational increases were only observed at the 2.5 uM and 5 uM doses.

[4] = tested on: HEK293 CMV-fLuc subclone #3; assay: Updated 15-Assay / 21-Assay, cap-dependent translational responses; type: cell-based, human; conditions: 21-Assay, single-Toxin (Unknown), 6 hr
Description: (§1) The dashed line represents the level of translational response in the untreated samples.
Following 6 hr exposure to the compounds, cells were lysed and fLuc protein activity measured using a standard microplate reader assay. The triplicate plate reader values were averaged and expressed as the ratio of treated to untreated samples (Fold Induction). The dashed line represents the level of translational response in the untreated samples.
(§2) The 21-Assay procedure employs the same standard toxins as the Updated 15-Assay protocol. The extra 6 assays involve an unknown or an uncharacterized compound and its pairwise combinations with the five toxins: Unknown, Unknown+TPA, Unknown+Colchcine, Unknown+Bortezomib (Velcade), Unknown+Low dose Calon, and Unknown+Hycamtin (Topotecan).
Application of single-Toxin and two-Toxin assays in the Updated 15-Assay protocol was used to define cap-dependent translational responses in the HEK293 CMV-fLuc #3 subclone (FIG. 30A).
The combinatorial process described in this example provides a system for testing translational regulation by unknown compounds. In this example, a 21-Assay setup is described that employs the single and pairwise combinatorial application of 5 toxins, as in a standard 15-Toxin assay, and the addition of a sixth substance. Inclusion of the sixth substance requires the expansion of the assay group to a total of 21 single- and two-Toxin assays. For this example, a control substance (taxol) was selected from the original 15-Assay system.

[5] = tested on: HEK293 mTRdm-fLuc subclone #13 and HEK293 hTRdm-gLuc subclone #79; assay: Updated 15-Assay / 21-Assay, TR translational responses (fLuc, gLuc); type: cell-based, human; conditions: 21-Assay, subclone #13, taxol as Unknown
Description: as §1
As before, secreted Gaussia Luciferase (gLUC) activity was measured in conditioned media 6 hr after drug application and protein activity expressed as the ratio of treated to untreated samples (Fold Induction). The dashed line represents the translational response in untreated cells.
The dashed line represents the translational response produced by untreated cell samples.
Following a 6 hr culture time, secreted gLuc activity was measured in conditioned media using a standard microplate reader assay and expressed as the ratio of treated to untreated samples (Fold Induction). The dashed line represents the level of translational response in the untreated samples. Given that the gLuc protein is secreted into the media, it escapes the cytoplasmic protein turnover processes acting on the fLUC protein. Therefore, any difference in the apparent TR response is a likely result of variation in reporter protein synthesis, secretion or reduced protein turnover.
as §2, with “(Topotecan). […]” for “(Topotecan).”

[6] = tested on: MCF7 CMV-fLuc subclones #44 and #48; assay: PKC activator dose response, cap-dependent translation (fLuc); type: cell-based, human
Description: Following 6 hr exposure to the Single-Toxin TPA assay, cells were lysed and fLuc protein activity measured using a standard microplate reader assay. The raw values were averaged and expressed as the ratio of treated to untreated samples (Fold Induction).
Dashed lines represent translational response levels produced by a 100 nM TPA Single-Toxin assay. The Bryostatin 1 concentrations (top panel) encompassed the TPA concentrations used in FIG. 27A. […] The Bryostatin 2 dose response curve (bottom panel) employed higher drug concentrations (the maximal tested dose was 5× the largest TPA and Bryostatin 1 amounts). At the highest tested dose (2.5 uM), Bryostatin 2 produced fLuc activity consistent with the level observed with 100 nM TPA.
In addition to measuring cap-dependent and cap-independent translational effects, Class-specific translational activity and toxin-defined actions, the previously described materials and methods allow for a variety of applications designed to detect and characterize agents and processes that regulate ribosome activity. In this example, comparative dose response assays were used to detect cap-dependent and cap-independent translational regulation in MCF7 cells. The basis for this application was the observation that distinct translational responses are produced by compounds at different doses. When an assortment of compounds act on a common molecular target, they can be grouped into a genus of related drugs. By comparing individual species of a compound genus over a defined dose range, differences in translational regulation can be defined. Furthermore, these translational differences can often be linked to biological differences.
In this example (FIG. 27), the three PKC activators produced similar dose response trends in cap-dependent assays. […] However, macrolide lactones produced translational increases that were generally 60-70% of the TPA translational response (FIG. 27B). In fact, a 25 fold increase in Bryostatin 2 concentration (2.5 uM) was needed to produce a translational magnitude similar to the 100 nM TPA assay (FIG. 27B).

[7] = tested on: MCF7 mTRdm-fLuc subclones #8, #27, and #45; assay: PKC activator dose response, cap-independent TR translation (fLuc); type: cell-based, human
Description: Following 6 hr culture with a TPA single-Toxin assay, cells were lysed and fLuc protein activity measured using a standard microplate reader assay. The plate reader values were averaged and expressed as the ratio of treated to untreated samples (Fold Induction).
As with FIG. 27B, dashed lines represent translational response levels achieved by the 100 nM TPA assay in each cell line. […] A further difference between the cap-dependent and cap-independent assays was the observation that increased Bryostatin 2 concentrations (5× the maximal TPA dose) never produced fLUC activity equivalent to the 100 nM TPA assay. Thus, the Toxin Assay procedure can detect a statistically significant difference in cap-dependent and cap-independent translation in compounds that activate PKC activity.
In the cap-independent assays, a similar dose response trend was observed over a 1 nM to 250 nM range with a translational peak at a 100 nM dose. However, the magnitude of the Bryostatin increases were generally 30% of 100 nM TPA response.

[8] = tested on: Protein Kinase C (PKC); conditions: cited from earlier work

Compound: CC(C)C[C@@H](C=O)NC(=O)[C@H](CC(C)C)NC(=O)[C@H](CC(C)C)NC(=O)OCc1ccccc1 [MG132, Z-Leu-Leu-Leu-aldehyde] (Cbz-Leu-Leu-Leu-aldehyde)
- fLUC protein levels by Western blot ([1]; HCT116 mTRdm-fLUC 7-5, 15-Assay): significant fLUC protein levels
- fLUC protein levels by Western blot ([1]; HCT116 mTRdm-fLUC 12-16, 15-Assay, 6 hrs): extremely high protein levels

Compound: CC(=O)O[C@H]1C(=O)[C@@]2(C)[C@H]([C@H](OC(=O)c3ccccc3)[C@]3(O)C[C@H](OC(=O)[C@H](O)[C@@H](NC(=O)c4ccccc4)c4ccccc4)C(C)=C1C3(C)C)[C@]1(OC(C)=O)CO[C@@H]1C[C@@H]2O [Taxol, Paclitaxel]
- TR-specific toxin response [2]: Maximal TR-specific toxin responses
- response profile compared with other microtubule disruptor drugs [3]: smallest response profile of all the microtubule disruptor drugs tested
- effect on cap-dependent fLuc protein production [4]: minimal effect on cap-dependent fluc protein production
- effect on fLUC activity [5]: small synergistic increases in fLUC activity in the single-Toxin and the colchicine+taxol, calcimycin+taxol, bortezomib+taxol two-Toxin assays, but not in the TPA+taxol or topotecan+taxol assays

Compound: Bryostatin 2
- fold increase in concentration needed for translational magnitude similar to the 100 nM TPA assay [6]: 25 fold
- dose producing fLuc activity consistent with the level observed with 100 nM TPA ([6]; single-Toxin, highest tested dose): 2.5 µM
- % of the 100 nM TPA response ([7]; dose 2.5 uM): ~50%
- magnitude of translational response versus 100 nM TPA tests ([7]; single-Toxin): never reached the fLuc activity produced in 100 nM TPA tests
- inhibition constant (Ki) relative to the Ki of Bryostatin 1 [8]: 10 ×
